# Test results from article PMC11434980, “Deciphering Chemical Rules for Drug Penetration into Strongyloides” (Pharmaceutics, 2024).
# Tested on: parasitic females of S. venezuelensis
# Assay: Staining of adult females by the dyes
# Format: cell-based, Strongyloides venezuelensis
# Conditions: 10 µM
Compound,Staining of parasitic females,staining of adult females
CC[N+](C)(CC)CCC[n+]1c(-c2ccccc2)c2cc(N)ccc2c2ccc(N)cc21.[I-].[I-] [Propidium Iodide],Yes,living worms were not strongly stained
Cc1cc(C(=C2C=CC(=N)C=C2)c2ccc(N)cc2)ccc1N [Fuchsine],No,did not stain
Brilliant Cresyl Blue,Yes,stained adult females after 24 h in some localized structures
CN(C)c1ccc(C(=C2C=CC(=[N+](C)C)C=C2)c2ccc(N(C)C)cc2)cc1 [Crystal Violet],No,did not stain

# Same assay, conditions: 10 µM, time at which staining of females was seen
row,Compound,Staining (Time) [h]
1,CC[N+](C)(CC)CCC[n+]1c(-c2ccccc2)c2cc(N)ccc2c2ccc(N)cc21.[I-].[I-] [Propidium Iodide],72
2,Brilliant Cresyl Blue,24

# Tested on: S. venezuelensis L3s
# Assay: Staining (uptake) of L3 larvae by the dyes
# Format: cell-based, Strongyloides venezuelensis
# Conditions: not given
# Method: (§1) Baerman-obtained S. venezuelensis L3s were rinsed twice with distilled water and counted, and 100 to 150 larvae were placed per well in 96-well flat-bottom culture plates. Larvae were incubated at 28 °C for 30 min to allow adaptation and treated with compounds in the range of 0.5–40 µM for 72 h at 28 °C in a humid atmosphere. Mortality was assessed as the lack of any movement detected during 1 min of observation under an inverted microscope (40×), at 24, 48, and 72 h after treatment. The ability to stain the larvae was pointed out when observed; at 72 h, larvae were collected and washed two times with distilled water and placed in a new well to remove the background color and photographed. Pictures were also taken at 24 and 48 h without cleaning the larvae so as not to interfere with the 72 h readout of the experiment. […] All experiments were conducted in triplicate and at least three different times. The antiparasitic activity of the compounds was expressed as the concentration that inhibited the motility of half of the larvae (immobilization concentration 50, IC50).
row,Compound,Staining 72 h (L3 staining ability)
1,CC[N+](C)(CC)CCC[n+]1c(-c2ccccc2)c2cc(N)ccc2c2ccc(N)cc21.[I-].[I-] [Propidium Iodide],Yes
2,Cc1cc(C(=C2C=CC(=N)C=C2)c2ccc(N)cc2)ccc1N [Fuchsine],Yes
3,Brilliant Cresyl Blue,Yes
4,CN(C)c1ccc(C(=C2C=CC(=[N+](C)C)C=C2)c2ccc(N(C)C)cc2)cc1 [Crystal Violet],Yes

# Same assay, conditions: 72 h
row,Compound,lowest staining concentration (Conc) [µM]
1,CC[N+](C)(CC)CCC[n+]1c(-c2ccccc2)c2cc(N)ccc2c2ccc(N)cc21.[I-].[I-] [Propidium Iodide],3
2,Cc1cc(C(=C2C=CC(=N)C=C2)c2ccc(N)cc2)ccc1N [Fuchsine],2
3,Brilliant Cresyl Blue,2.5
4,CN(C)c1ccc(C(=C2C=CC(=[N+](C)C)C=C2)c2ccc(N(C)C)cc2)cc1 [Crystal Violet],2

# Tested on: HeLa (human cervical cancer) cell line
# Assay: Cytotoxicity, MTT method
# Format: cell-based
# Conditions: HeLa IC50 / L3 IC50
# Method: (§2) A cytotoxicity test was performed using the HeLa (human cervical cancer) cell line according to the MTT method. Cells were from the ATCC (Manassas, VA, USA). They were cultured at 37 °C in sub-confluent conditions under a 95% humidified atmosphere and 5% CO2 in Dulbecco’s Modified Eagle Medium (DMEM) (Gibco, Whaltman, MA, USA) supplemented with 10% heat-inactivated FBS, 2 mM L-glutamine, 100 U/mL penicillin, and 100 µg/mL streptomycin. […] The antiproliferative activity was measured in triplicate after 72 h using the MTT (3-(4,5-dimethylthiazol-2-yl)-2,5-diphenyltetrazolium bromide) Cell Proliferation Kit (Roche, Boston, MA, USA), following the manufacturer’s specifications. […] The selectivity index (SI = HeLa IC50/L3 IC50) for each compound was calculated to compare the antiparasitic activity with its respective human cell cytotoxicity.
row,Compound,selectivity index (SI = HeLa IC50/L3 IC50)
1,CN(C)c1ccc(C(=C2C=CC(=[N+](C)C)C=C2)c2ccc(N(C)C)cc2)cc1 [Crystal Violet],0.31

# Same assay, conditions: HeLa cells, 72 h, MTT; read-out: HeLa IC50 (antiproliferative activity / cytotoxicity)
row,Compound,IC50 [µM]
1,Cc1cc(C(=C2C=CC(=N)C=C2)c2ccc(N)cc2)ccc1N [Fuchsine],1
2,Brilliant Cresyl Blue,> 250

# Tested on: not listed separately
# Assay: Cytotoxicity, MTT method
# Format: cell-based, human
# Conditions: human; HeLa cells, 72 h, MTT; read-out: HeLa IC50 (antiproliferative activity / cytotoxicity)
# Method: as §2
row,Compound,IC50 at 72 h [µM]
1,CN(C)c1ccc(C(=C2C=CC(=[N+](C)C)C=C2)c2ccc(N(C)C)cc2)cc1 [Crystal Violet],1

# Tested on: S. venezuelensis L3s
# Assay: microbe, parasite or virus in culture
# Conditions: L3s, 20 µM, 72 h
# Method: as §1
# A total of 15 dyes were tested against S. venezuelensis L3s at a 20 µM concentration. The activity was determined by the number of larvae lacking motility relative to the total number in the well after 1 min of light excitation at 24, 48, and 72 h after treatment.
row,Compound,Screening 20 µM 72 h
1,CC[N+](C)(CC)CCC[n+]1c(-c2ccccc2)c2cc(N)ccc2c2ccc(N)cc21.[I-].[I-] [Propidium Iodide],Active
2,Cc1cc(C(=C2C=CC(=N)C=C2)c2ccc(N)cc2)ccc1N [Fuchsine],Active
3,Brilliant Cresyl Blue,Active
4,CN(C)c1ccc(C(=C2C=CC(=[N+](C)C)C=C2)c2ccc(N(C)C)cc2)cc1 [Crystal Violet],Active

# Same assay, conditions: read-out: IC50 24 h (immobilization concentration 50 of cultured L3s); L3s, 24 h
row,Compound,IC50 [µM]
1,CC[N+](C)(CC)CCC[n+]1c(-c2ccccc2)c2cc(N)ccc2c2ccc(N)cc21.[I-].[I-] [Propidium Iodide],14.5 ± 4.6
2,Cc1cc(C(=C2C=CC(=N)C=C2)c2ccc(N)cc2)ccc1N [Fuchsine],7.4 ± 1.3
3,Brilliant Cresyl Blue,14 ± 4.1

# Same assay, conditions: read-out: IC50 48 h (immobilization concentration 50 of cultured L3s); L3s, 48 h
row,Compound,IC50 [µM]
1,CC[N+](C)(CC)CCC[n+]1c(-c2ccccc2)c2cc(N)ccc2c2ccc(N)cc21.[I-].[I-] [Propidium Iodide],9.8 ± 3.2
2,Cc1cc(C(=C2C=CC(=N)C=C2)c2ccc(N)cc2)ccc1N [Fuchsine],6.8 ± 0.9
3,Brilliant Cresyl Blue,9.6 ± 0.6

# Same assay, conditions: read-out: IC50 72 h (immobilization concentration 50 of cultured L3s); L3s, 72 h
row,Compound,IC50 [µM]
1,CC[N+](C)(CC)CCC[n+]1c(-c2ccccc2)c2cc(N)ccc2c2ccc(N)cc21.[I-].[I-] [Propidium Iodide],4.3 ± 0.6
2,Cc1cc(C(=C2C=CC(=N)C=C2)c2ccc(N)cc2)ccc1N [Fuchsine],3.2 ± 0.4
3,Brilliant Cresyl Blue,6.8 ± 0.7

# Tested on: parasitic females of S. venezuelensis
# Assay: In vitro activity against adult females (movement categories)
# Format: cell-based, Strongyloides venezuelensis
# Conditions: 10 µM, 50–70 worms per well
# Method: Seven to nine days after infection, the mice or rats were euthanized and the small intestine was removed, sliced longitudinally, minced, and placed in a sedimentation cup wrapped in 8 layers of gauze in phosphate-buffered solution (PBS) for two hours at 37 °C. Parasitic females were collected from the sediment and washed twice with saline solution (NaCl 0.15 mol/L) and twice with Roswell Park Memorial Institute 1640 (RPMI 1640) (Gibco, Whaltman, MA, USA) supplemented with 10% heat-inactivated FBS, 100 µg/mL streptomycin, and 100 U/mL penicillin (Gibco, Whaltman, MA, USA) to avoid contamination during the in vitro assays. After collection, females were placed in 96-well plates with supplemented RPMI medium and kept at 37 °C. We tested three different female population densities to explore the effects on the measured activity: 1–3 females, 10–15 females, and 50–70 females per well. At 24 h after plating, the compounds were applied at 10 µM and the anti-parasitic activity was evaluated at 1, 24, 48, and 72 h after treatment based on movement for 30 s observation periods under the microscope (40×). […] All experiments were conducted in duplicate and at least three different times. […]
row,Compound,effect on adult females
1,CC[N+](C)(CC)CCC[n+]1c(-c2ccccc2)c2cc(N)ccc2c2ccc(N)cc21.[I-].[I-] [Propidium Iodide],significantly affected
2,Brilliant Cresyl Blue,significantly affected

# Same assay, conditions: 10 µM, 1 h, 50–70 worms per well
row,Compound,Activity against parasitic females 1 h
1,CC[N+](C)(CC)CCC[n+]1c(-c2ccccc2)c2cc(N)ccc2c2ccc(N)cc21.[I-].[I-] [Propidium Iodide],Slightly affected
2,Cc1cc(C(=C2C=CC(=N)C=C2)c2ccc(N)cc2)ccc1N [Fuchsine],Healthy
3,Brilliant Cresyl Blue,Healthy
4,CN(C)c1ccc(C(=C2C=CC(=[N+](C)C)C=C2)c2ccc(N(C)C)cc2)cc1 [Crystal Violet],Healthy

# Same assay, conditions: 10 µM, 24 h, 50–70 worms per well
row,Compound,Activity against parasitic females 24 h
1,CC[N+](C)(CC)CCC[n+]1c(-c2ccccc2)c2cc(N)ccc2c2ccc(N)cc21.[I-].[I-] [Propidium Iodide],Slightly affected
2,Cc1cc(C(=C2C=CC(=N)C=C2)c2ccc(N)cc2)ccc1N [Fuchsine],Healthy
3,Brilliant Cresyl Blue,Slightly affected
4,CN(C)c1ccc(C(=C2C=CC(=[N+](C)C)C=C2)c2ccc(N(C)C)cc2)cc1 [Crystal Violet],Healthy

# Same assay, conditions: 10 µM, 48 h, 50–70 worms per well
row,Compound,Activity against parasitic females 48 h
1,CC[N+](C)(CC)CCC[n+]1c(-c2ccccc2)c2cc(N)ccc2c2ccc(N)cc21.[I-].[I-] [Propidium Iodide],Slightly affected
2,Cc1cc(C(=C2C=CC(=N)C=C2)c2ccc(N)cc2)ccc1N [Fuchsine],Healthy
3,Brilliant Cresyl Blue,Affected
4,CN(C)c1ccc(C(=C2C=CC(=[N+](C)C)C=C2)c2ccc(N(C)C)cc2)cc1 [Crystal Violet],Slightly affected

# Same assay, conditions: 10 µM, 72 h, 50–70 worms per well
row,Compound,Activity against parasitic females 72 h
1,CC[N+](C)(CC)CCC[n+]1c(-c2ccccc2)c2cc(N)ccc2c2ccc(N)cc21.[I-].[I-] [Propidium Iodide],Affected/Some deaths
2,Cc1cc(C(=C2C=CC(=N)C=C2)c2ccc(N)cc2)ccc1N [Fuchsine],Healthy
3,Brilliant Cresyl Blue,Affected
4,CN(C)c1ccc(C(=C2C=CC(=[N+](C)C)C=C2)c2ccc(N(C)C)cc2)cc1 [Crystal Violet],Slightly affected

# Tested on: S. venezuelensis experimental infections of mice
# Assay: In vivo activity in S. venezuelensis experimental infection of mice (eggs in feces, parthenogenetic females)
# Design: species or system Strongyloides venezuelensis
# Conditions: day 8 p.i., compared to infection group
# Method: All animals were infected by subcutaneous injection with 3000 […] of S. venezuelensis resuspended in PBS. […] The eggs per gram was reported. The recovery of parasite females was performed as described above. The mean was determined for the eggs per gram (EPG) of feces and parthenogenetic female counts. The color of the feces and urine in the beds was recorded.
row,Compound,reduction in the number of parthenogenetic females [%]
1,CN(C)c1ccc(C(=C2C=CC(=[N+](C)C)C=C2)c2ccc(N(C)C)cc2)cc1 [Crystal Violet],46.5

# Same assay, conditions: ivermectin 0.2 mg/kg oral day 5 p.i., dyes 20 mg/kg/day day 0 to 5 p.i.
row,Compound,parthenogenetic females recovered per mouse at day 8 p.i.
1,CN(C)c1ccc(C(=C2C=CC(=[N+](C)C)C=C2)c2ccc(N(C)C)cc2)cc1 [Crystal Violet],182
